Test results reported in article PMC5130025, “A new antiproliferative noscapine analogue: chemical synthesis and biological evaluation” (Oncotarget, 2016).

Key:
[1] = target: Porcine brain tubulin (unfractionated); assay: Tryptophan fluorescence quenching binding assay, porcine brain tubulin; conditions: dissociation constant, calculated
βI,βI-tubulin = target: T1, βI,βI-tubulin (Homo sapiens, UniProt P07437); assay: Tryptophan fluorescence quenching binding assay, recombinant βI,βI-tubulin homodimer; conditions: dissociation constant, calculated
T1 construct: made in house; host or cells: E. coli BL21 (DE3)
T1 sequence (P07437 whole entry): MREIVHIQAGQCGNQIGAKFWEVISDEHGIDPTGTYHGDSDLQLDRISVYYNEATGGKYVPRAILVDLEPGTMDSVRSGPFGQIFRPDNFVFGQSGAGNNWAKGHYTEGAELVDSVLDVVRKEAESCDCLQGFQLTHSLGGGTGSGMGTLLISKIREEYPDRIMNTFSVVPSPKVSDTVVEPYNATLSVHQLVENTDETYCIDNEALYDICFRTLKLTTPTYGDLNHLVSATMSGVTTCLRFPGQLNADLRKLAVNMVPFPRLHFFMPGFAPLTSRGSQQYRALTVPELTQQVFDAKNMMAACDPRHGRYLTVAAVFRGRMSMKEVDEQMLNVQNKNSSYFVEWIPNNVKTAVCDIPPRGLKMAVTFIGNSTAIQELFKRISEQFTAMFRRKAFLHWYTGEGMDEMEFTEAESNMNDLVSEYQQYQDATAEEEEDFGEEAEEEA
Description: (§1) The protein sequence of human αI-tubulin is given by UniProtKB accession number Q71U36 (gene name TUBA1A), the protein sequence of human βI-tubulin is given by UniProtKB accession number P07437 (gene name TUBB) and that of human βIII-tubulin is given by UniProtKB accession number Q13509 (gene name TUBB3). The cloning work for αI- and βI-tubulin was performed and reported previously. For the βIII human tubulin protein, the sequence was converted into DNA sequences with codons optimized for production in Escherichia coli, and for purification purposes, a His-tag was added at the N-terminus. The βIII-tubulin gene was inserted into a pET15b vector between the XhoI and NdeI restriction sites. The correct sequence, insertion, and orientation of the tubulin constructs were verified by DNA sequencing. Recombinant proteins were expressed in E. coli BL21 (DE3) host cells in LB medium supplemented with 100 μg/mL ampicillin. The cultures were grown at 37°C until an OD600 = 0.8 was reached, and the cells were induced with 1.0 mM isopropyl b-D-1-thiogalactopyranoside (IPTG) for 18 h at 25°C. After induction, the cells were harvested by centrifugation (6000 × g for 20 min at 4°C in SLC-6000 evolution sorvall rotor). The three variants of the tubulin protein were isolated from the inclusion bodies. […]

αI,βI-tubulin = target: T2, αI,βI-tubulin (Homo sapiens, UniProt P07437+Q71U36); assay: Tryptophan fluorescence quenching binding assay, recombinant αI,βI-tubulin heterodimer; conditions: dissociation constant, calculated
T2 construct: made in house; host or cells: E. coli BL21 (DE3)
T2 sequence (Q71U36 whole entry): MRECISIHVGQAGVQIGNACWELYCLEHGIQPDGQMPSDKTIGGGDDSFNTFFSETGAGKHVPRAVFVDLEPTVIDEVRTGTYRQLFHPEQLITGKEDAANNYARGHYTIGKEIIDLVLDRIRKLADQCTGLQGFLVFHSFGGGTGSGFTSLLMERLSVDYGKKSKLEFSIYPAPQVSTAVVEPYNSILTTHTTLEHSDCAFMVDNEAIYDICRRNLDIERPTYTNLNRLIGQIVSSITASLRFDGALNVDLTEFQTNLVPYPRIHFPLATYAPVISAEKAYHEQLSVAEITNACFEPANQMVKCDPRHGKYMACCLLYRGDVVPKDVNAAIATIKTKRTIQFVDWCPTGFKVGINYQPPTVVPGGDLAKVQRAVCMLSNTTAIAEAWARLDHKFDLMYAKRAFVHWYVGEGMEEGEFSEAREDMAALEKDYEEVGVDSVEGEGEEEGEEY
T2 sequence (P07437 whole entry): as the sequence (P07437 whole entry) above
Description: as §1

αI,βIII-tubulin = target: T3, αI,βIII-tubulin (Homo sapiens, UniProt Q13509+Q71U36); assay: Tryptophan fluorescence quenching binding assay, recombinant αI,βIII-tubulin heterodimer; conditions: dissociation constant, calculated
T3 construct: His-tag (N); made in house; host or cells: E. coli BL21 (DE3)
T3 sequence (Q71U36 whole entry): as the sequence (Q71U36 whole entry) above
T3 sequence (Q13509 whole entry): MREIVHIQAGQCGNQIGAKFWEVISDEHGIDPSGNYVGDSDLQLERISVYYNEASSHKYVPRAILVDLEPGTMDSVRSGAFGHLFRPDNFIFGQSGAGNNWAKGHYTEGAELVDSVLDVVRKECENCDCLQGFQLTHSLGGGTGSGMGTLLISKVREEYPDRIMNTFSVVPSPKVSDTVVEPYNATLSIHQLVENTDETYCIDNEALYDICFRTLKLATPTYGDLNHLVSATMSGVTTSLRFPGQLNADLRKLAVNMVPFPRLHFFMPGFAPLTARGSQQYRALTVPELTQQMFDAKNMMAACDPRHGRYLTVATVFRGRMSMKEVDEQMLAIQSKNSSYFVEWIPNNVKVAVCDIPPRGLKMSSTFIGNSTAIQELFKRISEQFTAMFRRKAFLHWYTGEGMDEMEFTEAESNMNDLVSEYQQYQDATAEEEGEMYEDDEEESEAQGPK
Description: as §1

[2] = tested on: SKBR-3 breast cancer cell line; assay: MTT assay, SKBR-3; assay type: cell-based; conditions: Homo sapiens, SK-BR-3; SKBR-3, 24 h treatment (21 h + 3 h MTT); read-out: IC50, cell viability (MTT)
Description: (§2) The human breast cancer cell lines SKBR-3 and paclitaxel-resistant SKBR-3 were kindly provided by Marc St. George (University of Alberta, Canada). Both cell lines were grown in RPMI 1640 medium (GIBCO) with 10% fetal calf serum and 1 mM L-glutamine 1% penicillin/streptomycin mixture under a humidified atmosphere containing 5% CO2. Addition of 16.65 nM paclitaxel to the paclitaxel-resistant cell line is mandatory to keep the acquired resistance at the same efficiency level.
(§3) The human breast cancer cell lines SKBR-3 and paclitaxel-resistant SKBR-3 (1 × 10^4 cells per well) were seeded into 96-well plates. […] After 21 h incubation, 50 μL of MTT (1 mg/mL) solution was added and the plates were incubated for an additional 3 h. After centrifugation, supernatant was removed from each well and […] of dimethyl sulfoxide (DMSO) was added to dissolve the insoluble formazan crystals. The absorbance was measured at 570 nm and 690 nm subtracted as a background, using microplate reader. The data was plotted using GraphPad Prism 5.0 software. IC50 and statistical analysis (t-test) were calculated using the same software.

[3] = tested on: paclitaxel-resistant SKBR-3 breast cancer cell line; assay: MTT assay, paclitaxel-resistant SKBR-3; assay type: cell-based; conditions: Homo sapiens, SK-BR-3, paclitaxel-resistant SKBR-3, 24 h treatment (21 h + 3 h MTT); read-out: IC50, cell viability (MTT)
Description: as §2, §3

tubulin = assay: Microtubule assembly assay (turbidity); assay type: biochemical; conditions: 10 μM compound, tubulin 3 mg/mL, 37°C, turbidity at 340 nm
Description: The turbidity was recorded on 96-half area well plates by microplate reader at 340 nm as an indicator for microtubules formation. […] Tubulin at a concentration of 3mg/mL in tubulin buffer (80 mM PIPES pH 6.9, 2 mM MgCl2, 0.5 mM EGTA, 1 mM GTP, 10.2% glycerol) was kept at 4°C before being added to the wells and shifting to 37°C. The absorbance was measured using the kinetic absorbance mode. DMSO solutions of paclitaxel and colchicine (10 μM) were used as controls.

SMILES	Kd [1] [µM]	Kd (βI,βI-tubulin) [µM]	Kd (αI,βI-tubulin) [µM]	Kd (αI,βIII-tubulin) [µM]	IC50 [2] [µM]	IC50 [3] [µM]	Effect on MT polymerization (tubulin)
COc1ccc2c(c1OC)C(=O)O[C@@H]2[C@H]1c2c(cc3c(c2OC)OCO3)CCN1C [Noscapine]	265	426	293	289	~100	~100	stabilize MT
COc1ccc2c(c1OC)C(=O)O/C2=C\c1ccc2c(c1)OCO2 [Compound 8, (Z)-3-(benzo[d][1,3]dioxol-5-ylmethylene)-6,7-dimethoxyisobenzofuran-1(3H)-one]					~40	~64	destabilize MT
